Like-named read-outs stand apart in the source and are kept apart here.
Columns and labels:
prolactin = experiment: Prolactin blood level in rats (enzyme immunometric assay); format: in vivo, rat; conditions: i.p.; measured at 0, 60 and 120 min after treatment
Source text: Prolactin secretion: Typical neuroleptics induce hyperprolactinemia, which is frequently associated with gallactorehea and impaired gonadal and sexual function. The measurement of the circulatory plasma prolactin level was therefore used as a sensitive biochemical marker for the psychotropic activity of the known neuroleptics and the chemical conjugates of the present invention, following intraperitoneal or oral administration thereof. Thus, blood was collected from the punctured eye orbital of rats under ether anesthesia and the assay was performed using Millennia, rat prolactin enzyme immunometric assay-kit (DPC, USA).

B16 MDR = experiment: Proliferation test, B16 MDR cells; format: cell-based, murine; conditions: Mus musculus; linear regression of survival percentage
Experimental: (§1) Cell lines: Human prostate carcinoma (PC-3), human colon carcinoma (HT-29), murine melanoma (B-16) and its drug resistant subclone (B-16 MDR), mouse fibroblasts (3T3), myeloid leukemia (HL 60) and its drug resistant subclone (HL 60 MX2), endometrium cell line (MES SA) and its drug resistant subclone (MES DX5), jurkat T lymphoma and monocyte leukemia (U-937), were used in this study.
(§2) Proliferation of cancer and normal cells: Proliferation was measured by neutral red assay or by a fluorometric assay quantitating DNA content. In the neutral red assay, the neutral red is absorbed by lysosomes, thus causing coloring of living cells. Quantitative analysis is performed by colorimetric assay (ELISA reader at 550 nm). In the fluorometric assay, alamar blue is used as a redox indicator. Alamar blue fluorescence was measured at an excitation wavelength of 544 nm and an emission wavelength of […] (FLUOstar BMG Lab Technologies, Offenburg, Germany).
(§3) The cells were sub-cultured and the tested compounds were added thereto in increasing concentrations. The IC50 values were determined by linear regression of the survival percentage of the cells.

B16 = experiment: Proliferation test, B16 melanoma cells; format: cell-based, murine; conditions: for IC50: Mus musculus, B16, linear regression of survival percentage
Experimental: as §1, §2, §3

HT-29 = experiment: Proliferation test, HT-29 cells; format: cell-based; conditions: Homo sapiens, linear regression of survival percentage
Experimental: as §1, §2, §3

PC-3 = experiment: Proliferation test, PC-3 cells; format: cell-based; conditions: Homo sapiens, linear regression of survival percentage
Experimental: as §1, §2, §3

3T3 = experiment: Proliferation test, 3T3 fibroblasts; format: cell-based; conditions: Mus musculus, NIH3T3; linear regression of survival percentage
Experimental: as §1, §2, §3

Normal rat fibroblasts = experiment: Proliferation test, normal rat fibroblasts; format: cell-based; conditions: Fibroblast, linear regression of survival percentage
Experimental: The primary cultures of rat fibroblasts were obtained from neonatal rats using known procedures.
as §2, §3

HL 60 = experiment: Proliferation test, HL 60 cells; format: cell-based; conditions: Homo sapiens, linear regression of survival percentage
Experimental: as §1, §2, §3

HL 60 MX2 (MDR) = experiment: Proliferation test, HL 60 MX2 (MDR) cells; format: cell-based; conditions: Homo sapiens, HL60/MX2; linear regression of survival percentage
Experimental: as §1, §2, §3

MES SA = experiment: Proliferation test, MES SA cells; format: cell-based; conditions: Homo sapiens, linear regression of survival percentage
Experimental: as §1, §2, §3

MES SA DX5 (MDR) = experiment: Proliferation test, MES SA DX5 (MDR) cells; format: cell-based; conditions: Homo sapiens, linear regression of survival percentage
Experimental: as §1, §2, §3

Jurkat T lymphoma cells = experiment: Proliferation / viability test, Jurkat T lymphoma cells; format: cell-based; conditions: Homo sapiens
Experimental: as §1, §2, §3

U-937 = experiment: Proliferation test, U-937 cells; format: cell-based; conditions: Homo sapiens, linear regression of survival percentage
Experimental: as §1, §2, §3

in vivo = conditions: ICR, mouse, in vivo, ip
Experimental: (§4) Toxicity: In vitro toxicity was determined by measuring the effect of the tested compounds (either known neuroleptics or the chemical conjugates of the invention) on primary cultures of neurons and whole brain neuron and glia cells obtained from the brains of neonatal mice. In vitro toxicity of perphenazine and its chemical conjugate AN 168 was also determined with rat myocytes. Acute toxicity in vivo as determined by the LD50 was evaluated on 2 months old ICR mice following the administration of a single intraperitoneal bolus-dose of drug.
(§5) The in vivo toxicity of perphenazine and AN 167 was evaluated following the intraperitoneal administration of a single dose thereof to mice.

ICR mice = experiment: Acute toxicity in vivo (LD50) in mice; conditions: single intraperitoneal dose, compared with perphenazine (FIG. 21)
Experimental: as §4, §5

rats [1] = experiment: Catalepsy in rats, “wall” test
Experimental: (§6) Animals: Young adult male rats (150-230 grams) were purchased from Harlan (Israel). Animals were divided 2-5/cage and housed in controlled conditions in the animal room for a week prior to the experiments. The experiments were conducted with naive animals, in a double blind procedure. In each experiment various treatment groups (about 5-10 animals each) were tested.
(§7) Catalepsy in rats: The manifestation of the extrapyramidal adverse effects induced by typical neuroleptics was evaluated by the appearance of stereotypic cataleptic behavior in rats following the neuroleptic treatment. Catalepsy was determined by two methods: (i) by measuring the time it took an animal hanging on a cage wall to move its hind legs and reach a flat surface (the “wall” test); and (ii) rats were placed on a flat surface with their anterior limbs leaning on a flat bar (5.5 cm height) resembling a piano playing position. Catalepsy was determined by the time it took an animal to descend and reach the flat surface (the “piano” test). The maximum time of follow up was 2 minutes and these measurements were performed hourly and individually for each animal. These tests provide an assessment of central dopamine (DA) blocking activity and are acceptable criteria for extrapyramidal symptoms induced by anti-psychotic drugs [10].
(§8) A control animals group was treated with the vehicle (lactic acid) only.

rats [2] = experiment: Behavioral criteria: sedation and mobility score in rats; conditions: score 0-3; for sedation and mobility score, 30 min / sedation and mobility score, 60 min / sedation and mobility score, 90 min / sedation and mobility score, 120 min / sedation and mobility score, 180 min / sedation and mobility score, 240 min: i.p., 5 mg/kg perphenazine, 7.5 mg/kg fluphenazine or equimolar conjugate; for Sedation score: oral, 4-6 hours after treatment
Experimental: The effect of the administration of the tested compound on animals behavior was measured by evaluating the degree of animal sedation and mobility following the treatment described hereinabove, using a score of from 0 to 3. A score of 0 represents active and mobile animals, 1 represents calm and mobile animals, 2 represents calm and immobile animals and 3 represents completely ataxic and non-alert animals.

rats [3] = experiment: Catalepsy in rats, “piano” test, oral administration; format: in vivo, rat; conditions: oral, 10 and 20 mg/kg perphenazine or equimolar doses of conjugate
Experimental: To this end, the induced catalepsy, the prolactin blood levels and the animal behavior were measured as described hereinabove, following oral administration of either AN 168 or perphenazine alone to rats. Animals, divided 5 per cage, were treated by oral administration of perphenazine or AN-168 dissolved in 1% lactic acid. Control animals received vehicle (lactic acid) only.
The catalepsy induced by oral administration of various concentrations of AN 168 and perphenazine was measured by the “wall” test and the “piano” test described hereinabove. The time course of catalepsy was measured 4-24 hours following oral administration of 2.5, 5, 10 and 20 mg/kg perphenazine and respective equimolar doses of 3.5, 7, 14 and 28 mg/kg AN-168. The total catalepsy represents the sum of average catalepsy per treated group during the 4-24 hours of follow-up.

mice = experiment: Catalepsy in mice (bar between two cages); format: in vivo, mouse; conditions: adult male mice, 1.5 mg/kg perphenazine or equimolar dose (FIG. 7a)
Experimental: Young adult male and female mice were purchased from Harlan, Israel. The animals were housed for 4-7 days under controlled conditions prior to experimentation. Experiments were conducted in a double blind procedure. In each experiment various treatment groups (about 10 animals each) were tested.
Catalepsy in mice: The appearance of stereotypic cataleptic behavior in mice following the neuroleptic treatment was measured in two different sets of experiments.
The catalepsy was determined using a system of two cages and a bar therebetween. The mouse was hung in the middle of the bar, and the percentage of animals reaching the target within 2 minutes was monitored 1 hour, 2 hours and 3 hours following the treatment.
The catalepsy was determined using the system described hereinabove. The mouse was hung in the middle of the bar, and the time it took the animal to reach the target was measured.

C6 rat glioma cells [4] = experiment: Viability of C6 rat glioma cells (neutral red); format: cell-based; conditions: Rattus norvegicus, Glioma cell; 24 hours treatment, neutral red, up to 100 μM (FIG. 14)
Experimental: as §2
The cells were sub-cultured and the tested compounds were added thereto in increasing concentrations, up to 100 μM.

C6 rat glioma cells [5] = experiment: DNA fragmentation in C6 rat glioma cells (propidium iodide flow cytometry); format: cell-based; conditions: Cisplatin 30 μM; perphenazine 25 and 50 μM; AN 168 25, 50 μM (FIG. 18)
Experimental: Apoptosis and DNA fragmentation: Fragmentation of cell nuclei was studied by flow cytometric analysis of propidium iodide-stained cells. This analysis was performed using a FACScan (Becton Dickinson, Mountain View, Calif.) equipped with an argon ion laser adjusted to an excitation wavelength of 480 nm and with a Doublet Discrimination Module (DDM). Lysis II (Becton Dickinson) software was used for data acquisition. Apoptotic nuclear changes were evaluated according to the criteria of Nicolletti et al..
The DNA fragmentation was determined by the propidium iodide flow cytometric method described hereinabove.

rat myocytes = conditions: Wistar, rat
Experimental: as §4

rats [6] = conditions: rat, in vivo, ip, 5 mg/kg
Experimental: as §6, §7, §8

[7] = linear regression of survival percentage, read-out: IC50, JURKAT

SMILES	time at which prolactin blood level peaked (prolactin)	IC50 (B16 MDR)	IC50 (B16)	IC50 (HT-29)	IC50 (PC-3)	IC50 (3T3)	IC50 (HL 60)	IC50 (HL 60 MX2 (MDR))	IC50 (MES SA)	IC50 (MES SA DX5 (MDR))	IC50 (Jurkat T lymphoma cells; [7])	IC50 (U-937)	LD50 at 2 weeks (in vivo)	sedation and mobility score, 30 min (rats [2])	sedation and mobility score, 60 min (rats [2])	sedation and mobility score, 90 min (rats [2])	sedation and mobility score, 120 min (rats [2])	sedation and mobility score, 180 min (rats [2])	sedation and mobility score, 240 min (rats [2])	other results
CCCC(=O)OCCN1CCN(CCCN2c3ccccc3Sc3ccc(Cl)cc32)CC1 [AN-167, Perphenazine Butyrate]	60 min	41.5 ± 1.8 µM	17.3 ± 4.5 µM	13.3 ± 2.4 µM	49.1 µM	21.7 µM	17.3 µM	19.9 µM	17.2 µM	20.9 µM	11.4 µM	23.3 µM	120 mg/kg	0	1	1	2	2	2	effect on the proliferation of B16 murine melanoma cells (B16; representative experiment (FIG. 13)): relatively active as anti-proliferative drugs; IC50 (Normal rat fibroblasts): 31.6 µM; time course of mortality (ICR mice): delayed; average of total catalepsy as percentage of the perphenazine-induced catalepsy (rats [1]; equimolar doses, four independent experiments (FIG. 6)): lower catalepsy as compared with perphenazine; induced catalepsy, SAR studies (rats [1]; i.p., 5 mg/kg perphenazine and equimolar conjugates, compared with perphenazine (FIG. 2)): significant reduction of the induced catalepsy; total catalepsy (rats [1]; i.p., 5 mg/kg perphenazine and equimolar conjugates, sum of determinations at 0, 60, 120 min (FIG. 1a)): did not induce catalepsy at all; total catalepsy (rats [1]; i.p., 5 mg/kg perphenazine, 7.5 mg/kg fluphenazine, equimolar conjugates, sum 0-420 min, normalized to parent drug (FIG. 3a)): reduced catalepsy significantly; time course of catalepsy (rats [1]; i.p., over a period of 7 hours (FIGS. 4a, 4b)): reduced catalepsy as compared with perphenazine
OCCN1CCN(CCCN2c3ccccc3Sc3ccc(Cl)cc32)CC1 [Perphenazine, perphenazine, reference compound]	60 min	18.4 ± 5.4 µM	12.5 ± 1.29 µM	8.85 ± 2.7 µM	23.1 ± 2.3 µM	26.6 µM	19.8 µM	22.6 µM	15.3 µM	16.2 µM	11.3 µM	21.3 µM	109 mg/kg	1	2	2	3	2	2	muscular rigidity and tachypnea (rats [3]): muscular rigidity and tachypnea were observed; catalepsy: percentage of animals reaching the target within 2 minutes (mice): higher catalepsy; IC50 (Jurkat T lymphoma cells; alamar blue method (FIG. 15), read-out: IC50, Jurkat T lymphoma cells viability): 16 µM; IC50 (C6 rat glioma cells [4]): 19.2 µM; DNA fragmentation (C6 rat glioma cells [5]): induced a dramatically increase in DNA fragmentation; decrease in cells viability (rat myocytes): 20%; time at which catalepsy peaked (rats [6]; male): 2 h; total catalepsy (rats [6]): catalepsy was induced; Sedation score (rats [2]; 2.5 mg/kg): 0; Sedation score (rats [2]; 5 mg/kg): 1; Sedation score (rats [2]; 10 mg/kg): 2; Sedation score (rats [2]; 20 mg/kg): 3

Source: US8168628B2, “Conjugated psychotropic drugs and uses thereof” (Ramot at Tel-Aviv University Ltd., priority 2001, dated 2012)
